{
  "source": "patent US12109217B2",
  "about": "“Bioactive agents included in functionalized starch having a single helix V-structure” (B-ORGANIC FILMS CORP., priority 2014, dated 2024)",
  "origin": "cited, not measured here",
  "key": {"[1]": {"conditions": "in vivo"}},
  "note": "Like-named read-outs stand apart in the source and are kept apart here.",
  "data": [
    {"smiles": "COC(=O)[C@H](c1ccccc1Cl)N1CCc2sccc2C1", "note": "[Clopidogrel bisulfate]", "values": [
      {"measurement": "solubility in water", "setting": "neutral pH", "result": "insoluble in water"},
      {"measurement": "solubility", "setting": "pH 1-2 (similar to gastric pH)", "result": "freely soluble"}
    ]},
    {"smiles": "CC(=O)O[C@H]1C(=O)[C@@]2(C)[C@H]([C@H](OC(=O)c3ccccc3)[C@]3(O)C[C@H](OC(=O)[C@H](O)[C@@H](NC(=O)c4ccccc4)c4ccccc4)C(C)=C1C3(C)C)[C@]1(OC(C)=O)CO[C@@H]1C[C@@H]2O", "note": "[Paclitaxel]", "values": [
      {"measurement": "solubility", "setting": "water / aqueous medium (and oil where stated)", "result": "poorly soluble in aqueous medium"}
    ]},
    {"smiles": "C[C@@H]1CC[C@H]2[C@@H](C)C(=O)O[C@@H]3O[C@@]4(C)CC[C@@H]1[C@]32OO4", "note": "[Artemisinin]", "values": [
      {"measurement": "oral bioavailability", "setting": "[1]", "result": "about 30%"}
    ]}
  ]
}
